According to US20050255509A1, “In vivo measurement of the relative fluxes through ribonucleotide reductase vs. deoxyribonucleoside pathways using isotopes” (KineMed, Inc., priority 2004, published 2005):

Columns and labels:
[1] = test system: EMT7 mouse mammary carcinoma cells; assay: Tumor volume by caliper over 5 days of chemotherapy; format: in vivo; conditions: balb/C mice with EMT7 tumors, 125 mg/kg Gem every other day or 500 mg/kg HU daily
Method: (§1) Female balb/C mice were implanted subcutaneously with approximately 10^6 EMT7 mouse mammary carcinoma cells in matrigel and allowed to reach ca.1500 mm^3. Mice were labeled with 2H2O with an i.p. bolus and treatment with either 125 mg/kg gemcitabine (Gem) or 500 mg/kg HU began. Gem was administered every other day, HU daily. At then end of 5 days tumors were removed, measured, homogenized and DNA was isolated as described, supra. Bone marrow was isolated using standard techniques. Bone marrow DNA was isolated as described, supra. GC/MS analysis was described as carried out, and calculations of RR activity and cell proliferation were carried out for both tumor and bone marrow tissues. Tumor volume was also measured by use of a caliper as is standard in the art.

[2] = test system: EMT7 mouse mammary carcinoma cells; assay: In vivo tumor cell proliferation by 2H2O incorporation over 5 days of chemotherapy; conditions: balb/C mice with EMT7 tumors, 125 mg/kg Gem every other day or 500 mg/kg HU daily
Method: as §1

[3] = molecular target: T1, ribonucleotide reductase (RR) (Homo sapiens, UniProt P23921+P31350); assay: RR activity measured by 2H2O in SW1573 cells; format: cell-based; design: endogenous in cells; host or cells: SW1573 non-small cell lung carcinoma cells; conditions: 24 hours; for RR activity, % of control: level reached with increasing doses
T1 sequence (P23921 1-792): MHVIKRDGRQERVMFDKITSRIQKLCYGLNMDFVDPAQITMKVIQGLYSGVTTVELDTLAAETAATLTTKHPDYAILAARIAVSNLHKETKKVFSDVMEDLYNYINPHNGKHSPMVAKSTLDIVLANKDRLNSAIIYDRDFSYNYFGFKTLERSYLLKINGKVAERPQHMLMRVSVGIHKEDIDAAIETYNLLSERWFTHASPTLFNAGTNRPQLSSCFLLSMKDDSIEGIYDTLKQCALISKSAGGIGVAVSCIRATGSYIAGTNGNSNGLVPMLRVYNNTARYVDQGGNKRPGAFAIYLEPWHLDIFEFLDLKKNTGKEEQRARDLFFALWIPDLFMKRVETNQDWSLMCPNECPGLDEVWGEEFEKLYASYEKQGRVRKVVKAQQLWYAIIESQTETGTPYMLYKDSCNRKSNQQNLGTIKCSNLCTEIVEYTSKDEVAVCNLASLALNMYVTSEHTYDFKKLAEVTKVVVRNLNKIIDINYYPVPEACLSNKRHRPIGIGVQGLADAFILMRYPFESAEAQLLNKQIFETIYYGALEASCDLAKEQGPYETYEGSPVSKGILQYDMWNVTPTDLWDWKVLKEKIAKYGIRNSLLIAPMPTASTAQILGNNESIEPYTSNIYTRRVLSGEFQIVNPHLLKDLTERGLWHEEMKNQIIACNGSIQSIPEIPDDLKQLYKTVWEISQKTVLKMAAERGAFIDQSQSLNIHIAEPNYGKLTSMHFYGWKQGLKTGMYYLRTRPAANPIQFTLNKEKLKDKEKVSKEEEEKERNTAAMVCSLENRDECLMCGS
T1 sequence (P31350 1-389): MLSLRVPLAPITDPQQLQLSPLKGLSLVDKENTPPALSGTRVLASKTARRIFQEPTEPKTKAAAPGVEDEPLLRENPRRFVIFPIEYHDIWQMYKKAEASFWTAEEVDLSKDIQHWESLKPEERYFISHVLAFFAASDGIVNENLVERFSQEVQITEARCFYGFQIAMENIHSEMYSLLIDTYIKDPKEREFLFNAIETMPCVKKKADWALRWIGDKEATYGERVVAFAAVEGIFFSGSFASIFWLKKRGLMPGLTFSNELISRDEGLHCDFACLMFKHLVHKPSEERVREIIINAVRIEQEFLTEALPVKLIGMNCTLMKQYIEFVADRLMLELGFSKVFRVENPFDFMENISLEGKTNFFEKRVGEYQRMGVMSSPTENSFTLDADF
Method: Ribonucleotide reductase catalyzes the conversion of ribonucleotides to deoxyribonucleotides (FIG. 1A). A unique feature of RR is the response of nucleoside metabolism to its inhibition. When RR is inhibited, the activity of thymidine kinase is increased. […] Traditionally, this effect is assayed in vitro by measuring the increase in the concentration of free TTP pool relative to the other deoxynucleotides. […] The salvage of deoxyadenosine is very low in normal cells allowing the measurement of DNA synthesis from the incorporation of de novo deoxyadenosine (see supra); furthermore since dAk activity is not affected by RR inhibition it can be used as the denominator for calculating fractional de novo thymidine synthesis. The relative inhibition of RR can be inferred from the reduction in de novo thymidine incorporation relative to dA into DNA. In a preferred embodiment of the invention, once the isotopic enrichment of dA and dT have been determined (as described, supra) for both a test and control subject or sample, the ratio of dT enrichment to dA enrichment is compared.
(§2) Non-small cell lung carcinoma cells (SW1573) were grown under standard conditions to approximately 50% confluence. Media was removed and replaced with media containing 4% ^2H2O, 1 µM dN's and hydroxyurea or gemcitabine at various concentrations. Cells were grown for and additional 24 hours after which they were harvested and frozen. Cell proliferation and RR inhibition was performed as described, supra.

[4] = molecular target: T2, ribonucleotide reductase (RR) (Mus musculus, UniProt P07742+P11157); assay: RR inhibition in tumor and bone marrow of EMT7 tumor-bearing mice over 5 days of chemotherapy; format: in vivo; conditions: balb/C mice with EMT7 tumors, 125 mg/kg Gem every other day or 500 mg/kg HU daily, relative to untreated (control) mice
T2 construct: from tissue; host or cells: EMT7 mouse mammary carcinoma tumour and bone marrow of female balb/C mice
T2 sequence (P07742 1-792): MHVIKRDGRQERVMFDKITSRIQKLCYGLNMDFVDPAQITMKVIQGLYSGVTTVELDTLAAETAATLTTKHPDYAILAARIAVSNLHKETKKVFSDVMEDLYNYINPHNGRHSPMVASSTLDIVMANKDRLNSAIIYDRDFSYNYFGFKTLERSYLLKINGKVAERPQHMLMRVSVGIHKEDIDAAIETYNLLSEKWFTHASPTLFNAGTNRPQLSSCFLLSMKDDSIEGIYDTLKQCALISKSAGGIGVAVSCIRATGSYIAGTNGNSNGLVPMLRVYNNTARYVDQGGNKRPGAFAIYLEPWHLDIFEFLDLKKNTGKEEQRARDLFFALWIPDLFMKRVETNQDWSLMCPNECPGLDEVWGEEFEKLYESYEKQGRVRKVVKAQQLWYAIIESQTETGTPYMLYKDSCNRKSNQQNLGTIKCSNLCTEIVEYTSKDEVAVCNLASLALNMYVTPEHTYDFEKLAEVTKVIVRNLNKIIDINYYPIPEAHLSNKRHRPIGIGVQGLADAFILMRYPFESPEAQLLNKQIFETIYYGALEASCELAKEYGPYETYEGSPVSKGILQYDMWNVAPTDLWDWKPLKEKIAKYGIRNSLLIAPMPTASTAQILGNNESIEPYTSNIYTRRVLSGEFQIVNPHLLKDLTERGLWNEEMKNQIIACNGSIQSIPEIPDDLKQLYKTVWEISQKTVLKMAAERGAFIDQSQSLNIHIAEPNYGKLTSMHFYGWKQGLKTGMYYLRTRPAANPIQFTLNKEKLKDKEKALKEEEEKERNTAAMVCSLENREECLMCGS
T2 sequence (P11157 1-390): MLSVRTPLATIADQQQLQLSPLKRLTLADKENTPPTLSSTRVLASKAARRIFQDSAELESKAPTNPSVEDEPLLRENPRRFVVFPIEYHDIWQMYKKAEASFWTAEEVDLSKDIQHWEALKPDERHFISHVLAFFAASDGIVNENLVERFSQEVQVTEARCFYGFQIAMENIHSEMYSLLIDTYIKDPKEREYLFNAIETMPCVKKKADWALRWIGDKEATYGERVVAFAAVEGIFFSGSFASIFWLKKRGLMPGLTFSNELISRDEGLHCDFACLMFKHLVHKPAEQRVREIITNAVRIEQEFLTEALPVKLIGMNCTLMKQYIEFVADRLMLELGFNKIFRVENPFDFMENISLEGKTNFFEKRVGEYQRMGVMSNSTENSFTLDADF
Method: Female balb/C mice were implanted subcutaneously with approximately 10^6 EMT7 mouse mammary carcinoma cells in matrigel and allowed to reach ca.1500 mm^3.
as §1, with “Mice” for “Female balb/C mice were implanted subcutaneously with approximately 10^6 EMT7 mouse mammary carcinoma cells in matrigel and allowed to reach ca.1500 mm^3. Mice”

[5] = test system: MCF7 cells; assay: Cell proliferation in hydroxyurea-treated MCF7 cells (2H2O labeling and coulter counter); format: cell-based; conditions: 24 hours, hydroxyurea at various concentrations
[6] = test system: SW1573 cells; assay: Cell proliferation measured by 2H2O in SW1573 cells; format: cell-based; conditions: 24 hours
Method: as §2

[7] = molecular target: T1, ribonucleotide reductase (RR); assay: RR activity measured by 2H2O in hydroxyurea-treated MCF7 cells; format: cell-based; design: endogenous in cells; conditions: 24 hours
Method: Ribonucleotide reductase catalyzes the conversion of ribonucleotides to deoxyribonucleotides (FIG. 1A). A unique feature of RR is the response of nucleoside metabolism to its inhibition. When RR is inhibited, the activity of thymidine kinase is increased. […] Traditionally, this effect is assayed in vitro by measuring the increase in the concentration of free TTP pool relative to the other deoxynucleotides. […] In a preferred embodiment of the invention, once the isotopic enrichment of dA and dT have been determined (as described, supra) for both a test and control subject or sample, the ratio of dT enrichment to dA enrichment is compared.
Mammary carcinoma cells (MCF7) were grown under standard conditions to approximately 50% confluence. […] Cells continued to grow for 24 hours after which they were harvested, counted by coulter counter, and frozen.
Genomic DNA was isolated from frozen cells using a Qiagen Tissue Prep Kit according to the manufacturer's instructions. DNA digestion was performed after measuring the ratio of 260/280 to quantify the amount of isolated DNA. […]
HPLC Purification: dA and T were then isolated at room temperature by using a Waters HPLC system coupled with a UV detector. […] Normal nucleosides (dC, dG, dT, dA) were detected by UV absorption at 254 nm. […]

| inhibition at 0.0016 µM ([3]; 1.6 nM) [%] | RR activity ([3]; 48 nM) | RR activity, % of control [3] | bone marrow cell RR activity [4] | tumor cell RR activity [4] | concentration at which apparent maximal RR inhibition occurred [3] | inhibition at 6 µM [3] [%] | RR activity ([7]; doses 50 μM HU and above) | activity of RR ([7]; hydroxyurea at various concentrations) | SMILES | tumor volume [1] | tumor cell proliferation [2] | rate of cell proliferation [5] | concentration at which inhibition of cell proliferation was evident [6] [µM] |
| --- | --- | --- | --- | --- | --- | --- | --- | --- | --- | --- | --- | --- | --- |
| 70 | nearly abolishes | ~0 % of control | inhibited | inhibited |  |  |  |  | Nc1ccn([C@@H]2O[C@H](CO)[C@@H](O)C2(F)F)c(=O)n1 [gemcitabine] | no change | effect of HU and Gem on cell proliferation is observed |  |  |
|  |  | −20 % of control | inhibited | inhibited | 6 µM | 80 | dramatically inhibited | reduces | NC(=O)NO [hydroxyurea] | no change | effect of HU and Gem on cell proliferation is observed | reduces the rate of cell proliferation | 20 |
